Source: ChEMBL document CHEMBL4130347, “Molecular topology: A new strategy for antimicrobial resistance control” (2017)
In brackets after ≈: the same amount, converted by molar mass. Activity calls are given as the source filed them. The calls are words filed in the database; no cut-off is given here.

Key:
Staphylococcus aureus [1] = assay: Antibacterial activity against methicillin-resistant Staphylococcus aureus ATCC 33591 by microdilution method; type: functional
[2] = system: Staphylococcus epidermidis; assay: Antibacterial activity against Staphylococcus epidermidis ATCC 12228 by microdilution method; type: functional, organism-based
Enterococcus faecalis = assay: Antibacterial activity against Enterococcus faecalis ATCC 51299 by microdilution method; type: functional
Staphylococcus aureus [3] = assay: Antibacterial activity against methicillin-susceptible Staphylococcus aureus ATCC 25923 by microdilution method; type: functional
Escherichia coli = assay: Antibacterial activity against Escherichia coli ATCC 25922 by microdilution method; type: functional, organism-based
Bacteria [4] = assay: (§1) Inhibition of bacterial RecA expressed in Escherichia coli ATCC 25922 harboring GyrA Ser83Leu mutant/ParC Ser80Arg mutant/GyrA Asp87Asn mutant assessed as decrease in SOS induction at 50 uM after 8 hrs in presence of 0.25 times MIC of ciprofloxacin by fluorescence assay relative to control
Bacteria [5] = assay: Inhibition of bacterial RecA expressed in Escherichia coli ATCC 25922 harboring GyrA Ser83Leu mutant assessed as decrease in SOS induction at 50 uM after 8 hrs in presence of 0.25 times MIC of ciprofloxacin by fluorescence assay relative to control
Bacteria [6] = assay: as §1, with “Asp87Asn mutant/marR deletion” for “Asp87Asn”
Bacteria [7] = assay: Inhibition of bacterial RecA expressed in Escherichia coli ATCC 25922 assessed as decrease in SOS induction at 50 uM after 8 hrs in presence of 0.25 times MIC of ciprofloxacin by fluorescence assay relative to control
Bacteria [8] = assay: Inhibition of bacterial RecA expressed in Escherichia coli ATCC 25922 harboring GyrA Ser83Leu mutant/ParC Ser80Arg mutant assessed as decrease in SOS induction at 50 uM after 8 hrs in presence of 0.25 times MIC of ciprofloxacin by fluorescence assay relative to control
Staphylococcus aureus [9] = assay: Antibacterial activity against methicillin-resistant Staphylococcus aureus ATCC 33591 assessed as decrease in levels of viable bacteria at 2 times MIC after 24 hrs by time-kill assay; type: functional
Staphylococcus aureus [10] = assay: Antibacterial activity against methicillin-resistant Staphylococcus aureus ATCC 33591 assessed as decrease in levels of viable bacteria at 2 times MIC after 8 hrs by time-kill assay; type: functional
Staphylococcus aureus [11] = assay: Antibacterial activity against methicillin-resistant Staphylococcus aureus ATCC 33591 assessed as decrease in levels of viable bacteria at 2 times MIC after 4 hrs by time-kill assay; type: functional
Staphylococcus aureus [12] = assay: Antibacterial activity against methicillin-resistant Staphylococcus aureus ATCC 33591 assessed as growth inhibition after 48 hrs; type: functional, organism-based

Row | SMILES | MIC (Staphylococcus aureus [1]) [µg/mL] | Activity [2] | Activity (Enterococcus faecalis) | MIC (Staphylococcus aureus [3]) [µg/mL] | Activity (Escherichia coli) | inhibition (Bacteria [4]) [%] | inhibition (Bacteria [5]) [%] | inhibition (Bacteria [6]) [%] | inhibition (Bacteria [7]) [%] | inhibition (Bacteria [8]) [%] | MIC (Enterococcus faecalis) [µg/mL] | Activity (Staphylococcus aureus [9]) [deltalog10CFU/ml] | Activity (Staphylococcus aureus [10]) [deltalog10CFU/ml] | Activity (Staphylococcus aureus [11]) [deltalog10CFU/ml] | growth inhibition (GI) (Staphylococcus aureus [12])
1 | COc1cc(C(=O)OCCCn2c(=O)c3c(nc(N4CCN(CCO)CC4)n3C)n(C)c2=O)cc(O)c1OC | 16 to 128 (≈ 29.3 to 234 µM) | Active | Active | 16 to 128 (≈ 29.3 to 234 µM) | inactive |  |  |  |  |  |  |  |  |  | 
2 | O=C(O)CSc1cc(NS(=O)(=O)c2ccc(Cl)cc2)c2ccccc2c1O | 16 to 128 (≈ 37.7 to 302 µM) |  |  | 16 to 128 (≈ 37.7 to 302 µM) | Active | 31 to 47 | 31 to 47 | 31 to 47 | 31 to 47 | 31 to 47 |  |  |  |  | 
3 | COCCOC(=O)C1=C(C)OC(N)=C(C#N)C12C(=O)N(CC(=O)OC)c1ccccc12 (configuration not stated) | 16 to 128 (≈ 37.4 to 299 µM) | Active |  | 16 to 128 (≈ 37.4 to 299 µM) | inactive |  |  |  |  |  | 32 to 128 (≈ 74.9 to 299 µM) |  |  |  | 
4 | NNc1ccc(S(=O)(=O)N2CCOCC2)cc1[N+](=O)[O-] | 16 to 128 (≈ 52.9 to 423 µM) | Active | Active | 16 to 128 (≈ 52.9 to 423 µM) | inactive |  |  |  |  |  |  |  |  |  | 
5 | O=C(CCN1CCOCC1)NNC(=O)c1ccc([N+](=O)[O-])cc1[N+](=O)[O-] | 16 to 128 (≈ 43.6 to 348 µM) | Active |  | 16 to 128 (≈ 43.6 to 348 µM) | inactive |  |  |  |  |  | 32 to 128 (≈ 87.1 to 348 µM) |  |  |  | 
6 | CCN(CC)CCN1C(=O)C(O)=C(C(=O)c2ccc(OC)cc2)C1c1ccc(C)o1 (configuration not stated) | 16 to 128 (≈ 38.8 to 310 µM) | Active | inactive | 16 to 128 (≈ 38.8 to 310 µM) | inactive |  |  |  |  |  |  | 4 | 2.5 | 1.5 | Dose-dependent effect
7 | COc1cc(C(=O)OCCn2c(N3CCN(CCO)CC3)nc3c2c(=O)n(C)c(=O)n3C)cc(OC)c1OC | 16 to 128 (≈ 29.3 to 234 µM) | Active |  | 16 to 128 (≈ 29.3 to 234 µM) | inactive |  |  |  |  |  | 32 to 128 (≈ 58.5 to 234 µM) |  |  |  | 
